Measured values taken from ChEMBL document CHEMBL4138123, “Design, synthesis and biological evaluation of novel pyrazolochalcones as potential modulators of PI3K/Akt/mTOR pathway and inducers of apoptosis in breast cancer cells” (Eur J Med Chem, 2017).

What was measured:
Assay type in all cases: functional
MOLT-4 [1] = assay: Cytotoxicity against human MOLT4 cells assessed as growth inhibition after 48 hrs by sulforhodamine B assay; settings: MOLT-4, 48 h; for CC50: read-out: LC50 (the source's name)
NCI-H322M = assay: Cytotoxicity against human NCI-H322M cells assessed as growth inhibition after 48 hrs by sulforhodamine B assay; settings: for CC50: read-out: LC50 (the source's name)
COLO 205 = assay: Cytotoxicity against human COLO205 cells assessed as growth inhibition after 48 hrs by sulforhodamine B assay; settings: COLO 205, 48 h
SW-620 = assay: Cytotoxicity against human SW620 cells assessed as growth inhibition after 48 hrs by sulforhodamine B assay; settings: SW-620, 48 h
SK-MEL-2 = assay: Cytotoxicity against human SK-MEL-2 cells assessed as growth inhibition after 48 hrs by sulforhodamine B assay; settings: SK-MEL-2, 48 h
UACC-257 = assay: Cytotoxicity against human UACC257 cells assessed as growth inhibition after 48 hrs by sulforhodamine B assay; settings: UACC-257, 48 h
RXF 393 = assay: Cytotoxicity against human RXF393 cells assessed as growth inhibition after 48 hrs by sulforhodamine B assay; settings: RXF 393, 48 h
DU-145 = assay: Cytotoxicity against human DU145 cells assessed as growth inhibition after 48 hrs by sulforhodamine B assay; settings: DU-145, 48 h
HL-60(TB) = assay: Cytotoxicity against human HL-60(TB) cells assessed as cell growth at 0.01 uM after 48 hrs by sulforhodamine B assay relative to control; settings: HL-60, 48 h, read-out: Activity
PC-3 = assay: Cytotoxicity against human PC3 cells assessed as cell growth at 0.01 uM after 48 hrs by sulforhodamine B assay relative to control; settings: PC-3, 48 h, read-out: Activity
MDA-MB-231 = assay: Cytotoxicity against human MDA-MB-231 cells assessed as cell growth at 0.01 uM after 48 hrs by sulforhodamine B assay relative to control; settings: MDA-MB-231, 48 h, read-out: Activity
RPMI-8226 = assay: Cytotoxicity against human RPMI8226 cells assessed as cell growth at 0.1 uM after 48 hrs by sulforhodamine B assay relative to control; settings: RPMI-8226, 48 h, read-out: Activity
HOP-62 = assay: Cytotoxicity against human HOP62 cells assessed as cell growth at 0.1 uM after 48 hrs by sulforhodamine B assay relative to control; settings: HOP-62, 48 h, read-out: Activity
HCT-116 = assay: Cytotoxicity against human HCT116 cells assessed as cell growth at 0.1 uM after 48 hrs by sulforhodamine B assay relative to control; settings: HCT-116, 48 h, read-out: Activity
U-251 [2] = assay: Cytotoxicity against human U251 cells assessed as cell growth at 0.1 uM after 48 hrs by sulforhodamine B assay relative to control; settings: U-251, 48 h, read-out: Activity
SK-MEL-5 = assay: Cytotoxicity against human SK-MEL-5 cells assessed as cell growth at 0.1 uM after 48 hrs by sulforhodamine B assay relative to control; settings: SK-MEL-5, 48 h, read-out: Activity
IGROV-1 [3] = assay: Cytotoxicity against human IGROV1 cells assessed as cell growth at 0.1 uM after 48 hrs by sulforhodamine B assay relative to control; settings: IGROV-1, 48 h, read-out: Activity
OVCAR-4 = assay: Cytotoxicity against human OVCAR4 cells assessed as cell growth at 0.1 uM after 48 hrs by sulforhodamine B assay relative to control; settings: OVCAR-4, 48 h, read-out: Activity
BT-549 [4] = assay: Cytotoxicity against human BT549 cells assessed as cell growth at 0.1 uM after 48 hrs by sulforhodamine B assay relative to control; settings: BT-549, 48 h, read-out: Activity
SF-268 = assay: Cytotoxicity against human SF268 cells assessed as cell growth at 1 uM after 48 hrs by sulforhodamine B assay relative to control; settings: SF-268, 48 h, read-out: Activity
U-251 [5] = assay: Cytotoxicity against human U251 cells assessed as cell growth at 1 uM after 48 hrs by sulforhodamine B assay relative to control; settings: U-251, 48 h, read-out: Activity
OVCAR-5 = assay: Cytotoxicity against human OVCAR5 cells assessed as cell growth at 1 uM after 48 hrs by sulforhodamine B assay relative to control; settings: OVCAR-5, 48 h, read-out: Activity
ACHN = assay: Cytotoxicity against human ACHN cells assessed as cell growth at 1 uM after 48 hrs by sulforhodamine B assay relative to control; settings: read-out: Activity
TK-10 = assay: Cytotoxicity against human TK10 cells assessed as cell growth at 1 uM after 48 hrs by sulforhodamine B assay relative to control; settings: TK-10, 48 h, read-out: Activity
MOLT-4 [6] = assay: Cytotoxicity against human MOLT4 cells assessed as cell growth at 10 uM after 48 hrs by sulforhodamine B assay relative to control; settings: MOLT-4, 48 h, read-out: Activity
NCI-H460 = assay: Cytotoxicity against human NCI-H460 cells assessed as cell growth at 10 uM after 48 hrs by sulforhodamine B assay relative to control; settings: NCI-H460, 48 h, read-out: Activity
HCT-15 = assay: Cytotoxicity against human HCT15 cells assessed as cell growth at 10 uM after 48 hrs by sulforhodamine B assay relative to control; settings: HCT-15, 48 h, read-out: Activity
NCI/ADR-RES = assay: Cytotoxicity against human NCI/ADR-RES cells assessed as cell growth at 10 uM after 48 hrs by sulforhodamine B assay relative to control; settings: read-out: Activity
SK-OV-3 = assay: Cytotoxicity against human SKOV3 cells assessed as cell growth at 10 uM after 48 hrs by sulforhodamine B assay relative to control; settings: SK-OV-3, 48 h, read-out: Activity
Hs-578T = assay: Cytotoxicity against human Hs 578T cells assessed as cell growth at 10 uM after 48 hrs by sulforhodamine B assay relative to control; settings: read-out: Activity
CCRF-CEM = assay: Cytotoxicity against human CCRF-CEM cells assessed as cell growth at 100 uM after 48 hrs by sulforhodamine B assay relative to control; settings: read-out: Activity
MDA-MB-435 = assay: Cytotoxicity against human MDA-MB-435 cells assessed as cell growth at 100 uM after 48 hrs by sulforhodamine B assay relative to control; settings: MDA-MB-435, 48 h, read-out: Activity
IGROV-1 [7] = assay: Cytotoxicity against human IGROV1 cells assessed as cell growth at 100 uM after 48 hrs by sulforhodamine B assay relative to control; settings: IGROV-1, 48 h, read-out: Activity
BT-549 [8] = assay: Cytotoxicity against human BT549 cells assessed as cell growth at 100 uM after 48 hrs by sulforhodamine B assay relative to control; settings: BT-549, 48 h, read-out: Activity

`COc1ccc(C(=O)/C=C/c2cc(-c3cc(OC)c(OC)c(OC)c3)n[nH]2)cc1OC` was tested, and the TGI (MOLT-4 [1]) was 5.56 µM, the CC50 (MOLT-4 [1]) was greater than 100 µM and the TGI (NCI-H322M) was 2.9 µM. The CC50 (NCI-H322M) was 5.51 µM, the LC50 (COLO 205) was 5.92 µM and the TGI (COLO 205) was 3.21 µM. For the same compound, the LC50 (lethal concentration, 50% net cell kill) (SW-620) was 6.55 µM, the TGI (SW-620) was 2.99 µM and the LC50 (concentration killing 50% of cells) (SK-MEL-2) was 6.68 µM. For the same compound, the TGI (SK-MEL-2) was 3.51 µM, the LC50 (UACC-257) was 5.37 µM and the TGI (UACC-257) was 2.83 µM. It also gave an LC50 (concentration killing 50% of cells) (RXF 393) of 5.23 µM, a TGI (RXF 393) of 2.66 µM and a TGI (DU-145) of 1.84 µM. For the same compound, the CC50 (DU-145; read-out: LC50 (the source's name)) was 4.76 µM, the growth at 0.01 µM (HL-60(TB)) was 103% and the growth at 0.01 µM (PC-3) was 96%. It also gave a growth at 0.01 µM (MDA-MB-231) of 104%, a growth at 0.1 µM (RPMI-8226) of 79% and a growth at 0.1 µM (HOP-62) of 100%. The growth at 0.1 µM (HCT-116) was 100%, the growth at 0.1 µM (U-251 [2]) was 95% and the growth at 0.1 µM (SK-MEL-5) was 96%. It also gave a growth at 0.1 µM (IGROV-1 [3]) of 96%, a growth at 0.1 µM (OVCAR-4) of 96% and a growth at 0.1 µM (BT-549 [4]) of 90%. For the same compound, the growth at 1 µM (SF-268) was 89%, the growth at 1 µM (U-251 [5]) was 65% and the growth at 1 µM (OVCAR-5) was 86%. It also gave a growth at 1 µM (ACHN) of 91%, a growth at 1 µM (TK-10) of 71% and a growth at 10 µM (MOLT-4 [6]) of -30%. It also gave a growth at 10 µM (NCI-H460) of -64%, a growth at 10 µM (HCT-15) of -78% and a growth at 10 µM (NCI/ADR-RES) of 10%. For the same compound, the growth at 10 µM (SK-OV-3) was -12%, the growth at 10 µM (Hs-578T) was -9% and the growth at 100 µM (CCRF-CEM) was -15%. For the same compound, the growth at 100 µM (MDA-MB-435) was -73%, the growth at 100 µM (IGROV-1 [7]) was -73% and the growth at 100 µM (BT-549 [8]) was -75%.
With `COc1cc(C(=O)/C=C/c2cc(-c3cc(OC)c(OC)c(OC)c3)n[nH]2)cc(OC)c1OC` the TGI (MOLT-4 [1]) was 8.95 µM, the CC50 (MOLT-4 [1]) was greater than 100 µM and the TGI (NCI-H322M) was 4.85 µM. For the same compound, the CC50 (NCI-H322M) was 14.4 µM, the LC50 (COLO 205) was 5.59 µM and the TGI (COLO 205) was 3.13 µM. It also gave an LC50 (lethal concentration, 50% net cell kill) (SW-620) of 5.97 µM, a TGI (SW-620) of 3.08 µM and an LC50 (concentration killing 50% of cells) (SK-MEL-2) of 8.32 µM. It also gave a TGI (SK-MEL-2) of 4.04 µM, an LC50 (UACC-257) of 5.71 µM and a TGI (UACC-257) of 2.99 µM. For the same compound, the LC50 (concentration killing 50% of cells) (RXF 393) was 5.68 µM, the TGI (RXF 393) was 2.67 µM and the growth at 0.01 µM (HL-60(TB)) was 112%. For the same compound, the growth at 0.01 µM (PC-3) was 95%, the growth at 0.01 µM (MDA-MB-231) was 110% and the growth at 0.1 µM (RPMI-8226) was 83%. It also gave a growth at 0.1 µM (HOP-62) of 94%, a growth at 0.1 µM (HCT-116) of 104% and a growth at 0.1 µM (U-251 [2]) of 94%. The growth at 0.1 µM (SK-MEL-5) was 95%, the growth at 0.1 µM (IGROV-1 [3]) was 103% and the growth at 0.1 µM (OVCAR-4) was 95%. It also gave a growth at 0.1 µM (BT-549 [4]) of 105%, a growth at 1 µM (SF-268) of 89% and a growth at 1 µM (U-251 [5]) of 83%. It also gave a growth at 1 µM (OVCAR-5) of 89%, a growth at 1 µM (ACHN) of 89% and a growth at 1 µM (TK-10) of 80%. For the same compound, the growth at 10 µM (MOLT-4 [6]) was -4%, the growth at 10 µM (NCI-H460) was -51% and the growth at 10 µM (HCT-15) was -71%. It also gave a growth at 10 µM (NCI/ADR-RES) of 12%, a growth at 10 µM (SK-OV-3) of 5% and a growth at 10 µM (Hs-578T) of 10%. For the same compound, the growth at 100 µM (CCRF-CEM) was 2%, the growth at 100 µM (MDA-MB-435) was -83% and the growth at 100 µM (IGROV-1 [7]) was -97%. For the same compound, the growth at 100 µM (BT-549 [8]) was -94%.
